# Data from US11957680B2, “Pyruvate kinase activators for use in treating blood disorders” (Agios Pharmaceuticals, Inc., priority 2017, dated 2024).
# Legend:
# wild type PKR [1] = target: T1, wild type PKR (Homo sapiens, UniProt P30613); assay: PKR (wild type) enzyme AC50 assay, LDH/NADH-coupled, absorbance at 340 nm; format: biochemical; details: for EC50: read-out: PKR WT; for AC50: read-out: PKR WT AC50
# Experimental: (§1) Example 11. PKR Mutant Assay
# (§2) PKR or PKR mutant enzyme solution was diluted into a reaction mix, which contains 1× buffer (100 mM KCl, 50 mM Tris pH 7.5, 5 mM MgCl2) as well as PEP (conc depends on enzyme), 180 μM NADH, 0.5 units LDH, 1 mM DTT, 0.03% BSA; final assay concentrations after 1.11 fold dilution are indicated.
# (§3) 2 μL of test compound was added into wells first, and then 180 μL reaction mix was added.
# (§4) Reactions mixture with test compound was assembled except for ADP, and plates were stored for 60 minutes at room temperature.
# (§5) 20 uL ADP was added to start reaction at room temperature and reaction progress was measured as changes in absorbance at 340 nm wavelength at room temperature.
# (§6) Test Compound Preparation:
# (§7) Test compound stock was made at 100× concentration in 100% DMSO (10 mM)
# (§8) 1 to 3 dilutions were made for 11 points (i.e. 50 μl of first concentration added to 100 μl 100% DMSO to yield 3.33 mM, 50 μl of this added to 100 μl DMSO to yield 1.11 mM, and so forth) • 1 to 100 dilution into assay (2 μl in 200 μl) yielded starting concentration of 100 μM, decreasing 3 fold for 11 points.
# (§9) Assay Buffer: 100 mM KCl, 50 mM Tris 7.5, 5 mM MgCl2, 1 mM DTT, 0.03% BSA
# (§10) Reaction Mixture: PKR mutant enzyme: 40-400 ng/well; ADP: 0.2-1.65 mM; PEP: 0.1-0.5 mM; NADH: 180 μM; LDH: 0.5 units (Sigma #59023); DTT: 1 mM; BSA: 0.03%.
# PKR K410E = PKR K410E (Homo sapiens, UniProt P30613, K410E); assay: PKR mutant assay (K410E), AC50, LDH/NADH-coupled, absorbance at 340 nm; format: biochemical; details: for EC50: Table 4, AC50, enzyme assay
# Sequence of PKR K410E (P30613 whole entry K410E): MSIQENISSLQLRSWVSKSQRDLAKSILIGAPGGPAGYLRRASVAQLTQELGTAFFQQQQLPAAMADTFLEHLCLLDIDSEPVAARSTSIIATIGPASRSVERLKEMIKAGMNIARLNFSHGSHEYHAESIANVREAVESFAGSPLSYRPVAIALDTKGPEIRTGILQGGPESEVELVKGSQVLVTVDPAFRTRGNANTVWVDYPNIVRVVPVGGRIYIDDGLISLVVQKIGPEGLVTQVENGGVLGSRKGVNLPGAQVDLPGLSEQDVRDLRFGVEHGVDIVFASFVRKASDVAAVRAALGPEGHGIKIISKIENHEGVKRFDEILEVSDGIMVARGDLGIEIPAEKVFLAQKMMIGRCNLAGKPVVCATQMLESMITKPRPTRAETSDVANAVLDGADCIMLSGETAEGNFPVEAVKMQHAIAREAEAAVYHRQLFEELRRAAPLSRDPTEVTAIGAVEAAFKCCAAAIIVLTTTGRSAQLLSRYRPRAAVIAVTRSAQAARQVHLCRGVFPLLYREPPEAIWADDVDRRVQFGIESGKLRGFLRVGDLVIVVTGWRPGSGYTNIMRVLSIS
# Experimental: as §1, §2, §3, §4, §5, §6, §7, §8, §9, §10
# PKR R510Q = PKR R510Q (Homo sapiens, UniProt P30613, R510Q); assay: PKR mutant assay (R510Q), AC50, LDH/NADH-coupled, absorbance at 340 nm; format: biochemical; details: for EC50: read-out: PK R510Q; for AC50: read-out: PK R510Q AC50
# Sequence of PKR R510Q (P30613 whole entry R510Q): as the sequence (P30613 whole entry K410E) above, with E410K, R510Q counted along it
# Experimental: as §1, §2, §3, §4, §5, §6, §7, §8, §9, §10
# wild type PKR [2] = target: T1, wild type PKR; assay: Cell based ATP assay in purified red blood cells (Cell-Titer-Glo); set-up: endogenous in cells; host or cells: purified red blood cells from healthy volunteers; details: overnight at 37° C., ATP levels; for EC50: Table 4, AC50, RBCs
# Experimental: Example 16. Red Blood Cell (RBC) Purification
# Fresh blood drawn from healthy volunteers into K2EDTA tubes was collected. Whole blood was pelleted by spinning at 500 g for 10 minutes. Cut transfusion bag port off of Purecell leukocyte reduction neofilter (Fisher NC0267633) one (1) inch above filter. Attach a 10 ml syringe barrel to the remaining cut tubing attached to neofilter. The plasma layer was removed from the pellet of the whole blood and the pellet was resuspended in 2× volume of phosphate buffered saline (PBS). Transfer 9 ml re-suspended blood cell pellet to prepared 10 ml syringe that is attached to the neofilter. Allow whole blood to gravity flow through filter until all fluid runs through upper tubing into filter disc. Add plunger to the syringe, remove syringe from clamp and invert the filter, then plunge air through the syringe filter system. Using a new 5 ml syringe, remove filtered RBCs from the bag by the syringe port and transfer purified RBCs to a 5 ml snap cap tube that has been incubated on ice. Spin 5 ml snap cap tube at 500 g for 10 minutes at 15 C, aspirate supernatant and resuspend in AGAM (1×PBS, 1% glucose, 170 mg/L adenine, 5.25 g/L mannitol) at a density of 4×10^9 cells/mL.
# Example 17. Cell Based ATP Assay
# For cell based ATP assays, the compound as described herein was prepared in 100% DMSO as a 10 mM stock. Serial dilutions (1:4) were performed in 96-well V-bottom storage plate and then added 1:100 to 96-well V-bottom plates containing AGAM. RBCs were diluted in AGAM media to a density of 1×10^7 cells/mL before added 90 μL/well to black clear bottom assay plates (final compound concentration at 0.1% DMSO concentration). Assay plates were sealed using aluminum foil seals and incubated overnight at 37° C. in a humidified chamber. ATP levels were read out using Cell-Titer-Glo (Promega).
# T1 sequence (P30613 whole entry): as the sequence (P30613 whole entry K410E) above, with E410K counted along it
Structure (SMILES),"EC50 (wild type PKR [1]; Table 4, AC50, enzyme assay)",EC50 (PKR K410E),"EC50 (PKR R510Q; Table 4, AC50, enzyme assay)",EC50 (wild type PKR [2]),"AC50 (wild type PKR [1]; Table 2, enzyme assay)","AC50 (PKR K410E; Table 2, enzyme assay)","AC50 (PKR R510Q; Table 2, enzyme assay)","AC50 (wild type PKR [2]; Table 2, RBCs)",further results
Cn1c2nc(Cc3cccc4[nH]c(=O)[nH]c34)sc2c2cnn(Cc3cccc4[nH]ncc34)c(=O)c21 [Compound 245],301 to 800 nM,301 to 800 nM,< 300 nM,≤ 1000 nM,–,–,–,–,–
Cn1c2nc(Cc3cc[nH]n3)sc2c2cnn(Cc3n[nH]c4ncccc34)c(=O)c21 [Compound 374],< 300 nM,< 300 nM,< 300 nM,≤ 1000 nM,–,–,–,–,–
Cn1c2nc(Cc3cc[nH]n3)sc2c2cnn(Cc3cccc4[nH]ccc34)c(=O)c21 [Compound 246],< 300 nM,< 300 nM,< 300 nM,≤ 1000 nM,–,–,–,–,–
CSc1nc2c(s1)c1cnn(Cc3cnc(=O)[nH]c3)c(=O)c1n2C [Compound 95],–,–,–,–,–,–,–,–,"PKR WT AC50 (wild type PKR [1]; Table 2, enzyme assay): No Fit; PKR K410E AC50 (PKR K410E; Table 2, enzyme assay): No Fit; PK R510Q AC50 (PKR R510Q; Table 2, enzyme assay): No Fit; Cell based ATP assay AC50 (wild type PKR [2]; Table 2, RBCs): No Fit"
Cn1c2nc(C(=O)NO)sc2c2cnn(Cc3cccc4[nH]ncc34)c(=O)c21 [Compound 138],–,–,–,–,301 to 800 nM,< 300 nM,301 to 800 nM,> 1000 nM,–
Cn1c2nc([C@@H](O)c3cc[nH]n3)sc2c2cnn(Cc3cccc4[nH]ncc34)c(=O)c21 [Compound 304],< 300 nM,< 300 nM,< 300 nM,≤ 1000 nM,–,–,–,–,–
Cc1nc2c(s1)c1cnn(Cc3ccccc3F)c(=O)c1n2C [Compound 3],–,–,–,–,< 300 nM,< 300 nM,< 300 nM,≤ 1000 nM,–
COC(=O)C(c1cc[nH]n1)c1nc2c(s1)c1cnn(Cc3cccc4[nH]ncc34)c(=O)c1n2C (stereo not shown) [Compound 171],–,–,–,–,> 800 nM,301 to 800 nM,> 800 nM,≤ 1000 nM,–
Cn1c2nc(Cc3cc[nH]n3)sc2c2cnn(Cc3cccc4[nH]ncc34)c(=O)c21 [Compound 81],–,–,–,–,< 300 nM,< 300 nM,< 300 nM,≤ 1000 nM,–
Cc1nc2c(s1)c1cnn(Cc3ccc(F)cc3)c(=O)c1n2C [Compound 9],–,–,–,–,< 300 nM,< 300 nM,< 300 nM,≤ 1000 nM,–
Cn1ccc(CCn2ncc3c4sc(Cc5cccnc5)nc4n(C)c3c2=O)n1 [Compound 400],> 800 nM,> 800 nM,> 800 nM,> 1000 nM,–,–,–,–,–
Cn1c2nc(Cc3cccnc3)sc2c2cnn(Cc3cccc4[nH]ncc34)c(=O)c21 [Compound 164],–,–,–,–,< 300 nM,< 300 nM,< 300 nM,≤ 1000 nM,–
CS(=O)(=O)c1nc2c(s1)c1cnn(Cc3ccccc3)c(=O)c1n2-c1nccs1 [Compound 410],–,> 800 nM,–,> 1000 nM,–,–,–,–,"PKR WT (wild type PKR [1]; Table 4, AC50, enzyme assay): No Fit; PK R510Q (PKR R510Q; Table 4, AC50, enzyme assay): No Fit"
Cn1c2nc(Cc3cc[nH]n3)sc2c2cnn(Cc3ccc4c(c3)OCO4)c(=O)c21 [Compound 226],< 300 nM,< 300 nM,< 300 nM,≤ 1000 nM,–,–,–,–,–
Cn1c2nc(Cc3cccc4[nH]ncc34)sc2c2cnn(Cc3cccc4[nH]ncc34)c(=O)c21 [Compound 143],–,–,–,–,< 300 nM,< 300 nM,< 300 nM,> 1000 nM,–
Cn1c2nc(Cc3cc[nH]n3)sc2c2cnn(Cc3cccc(O)c3)c(=O)c21 [Compound 369],< 300 nM,< 300 nM,< 300 nM,≤ 1000 nM,–,–,–,–,–
Cc1nc2c(s1)c1cnn(Cc3c[nH]cn3)c(=O)c1n2C [Compound 42],–,–,–,–,> 800 nM,> 800 nM,> 800 nM,> 1000 nM,–
Cn1c2nc([S+](C)[O-])sc2c2cnn(Cc3ccc4c(c3)OCCO4)c(=O)c21 (stereo not shown) [Compound 90],–,–,–,–,< 300 nM,< 300 nM,< 300 nM,> 1000 nM,–
Cn1c2nc(C(C)(O)c3ccccc3)sc2c2cnn(Cc3cccc4[nH]ncc34)c(=O)c21 (stereo not shown) [Compound 126],–,–,–,–,< 300 nM,< 300 nM,< 300 nM,≤ 1000 nM,–
Cn1c2nc(Cc3ccc(C(N)=O)cc3)sc2c2cnn(Cc3cccc4[nH]ncc34)c(=O)c21 [Compound 112],–,–,–,–,> 800 nM,> 800 nM,> 800 nM,> 1000 nM,–
Cn1c2nc(Cc3ncsc3C(N)=O)sc2c2cnn(Cc3cccc4[nH]ncc34)c(=O)c21 [Compound 196],< 300 nM,< 300 nM,< 300 nM,≤ 1000 nM,–,–,–,–,–
COc1cccc(Cn2ncc3c4sc(Cc5ccc(F)cc5)nc4n(C)c3c2=O)c1 [Compound 59],–,–,–,–,< 300 nM,< 300 nM,< 300 nM,≤ 1000 nM,–
Cn1c2nc(Cc3cc[nH]n3)sc2c2cnn(Cc3ccc4cc(Cl)[nH]c4n3)c(=O)c21 [Compound 388],< 300 nM,< 300 nM,< 300 nM,≤ 1000 nM,–,–,–,–,–
Cn1c2nc(Cc3ccns3)sc2c2cnn(Cc3cccc4[nH]ncc34)c(=O)c21 [Compound 209],> 800 nM,> 800 nM,> 800 nM,≤ 1000 nM,–,–,–,–,–
Cn1c2nc(Cn3cncn3)sc2c2cnn(Cc3cccc4[nH]ncc34)c(=O)c21 [Compound 293],< 300 nM,< 300 nM,301 to 800 nM,≤ 1000 nM,–,–,–,–,–
Cn1c2nc(Cc3ccccn3)sc2c2cnn(Cc3ccccc3)c(=O)c21 [Compound 263],< 300 nM,< 300 nM,< 300 nM,≤ 1000 nM,–,–,–,–,–
Cc1nc2c(s1)c1cnn(Cc3ccc4cc[nH]c4c3)c(=O)c1n2C [Compound 60],–,–,–,–,< 300 nM,< 300 nM,< 300 nM,≤ 1000 nM,–
Cn1c2nc(C(N)c3cc[nH]n3)sc2c2cnn(Cc3cccc4[nH]ncc34)c(=O)c21 (stereo not shown) [Compound 177],–,–,–,–,< 300 nM,< 300 nM,< 300 nM,≤ 1000 nM,–
